{"source": "paper PMC5762315", "about": "“Inhibition of polo-like kinase 4 (PLK4): a new therapeutic option for rhabdoid tumors and pediatric medulloblastoma” (Oncotarget, 2017)", "test_in_all_cases": "biochemical", "assay_type_in_all_cases": "biochemical", "key": {"various kinases [1]": {"target": "various kinases (Homo sapiens, UniProt Q9NYY3)", "sequence (Q9NYY3 whole entry)": "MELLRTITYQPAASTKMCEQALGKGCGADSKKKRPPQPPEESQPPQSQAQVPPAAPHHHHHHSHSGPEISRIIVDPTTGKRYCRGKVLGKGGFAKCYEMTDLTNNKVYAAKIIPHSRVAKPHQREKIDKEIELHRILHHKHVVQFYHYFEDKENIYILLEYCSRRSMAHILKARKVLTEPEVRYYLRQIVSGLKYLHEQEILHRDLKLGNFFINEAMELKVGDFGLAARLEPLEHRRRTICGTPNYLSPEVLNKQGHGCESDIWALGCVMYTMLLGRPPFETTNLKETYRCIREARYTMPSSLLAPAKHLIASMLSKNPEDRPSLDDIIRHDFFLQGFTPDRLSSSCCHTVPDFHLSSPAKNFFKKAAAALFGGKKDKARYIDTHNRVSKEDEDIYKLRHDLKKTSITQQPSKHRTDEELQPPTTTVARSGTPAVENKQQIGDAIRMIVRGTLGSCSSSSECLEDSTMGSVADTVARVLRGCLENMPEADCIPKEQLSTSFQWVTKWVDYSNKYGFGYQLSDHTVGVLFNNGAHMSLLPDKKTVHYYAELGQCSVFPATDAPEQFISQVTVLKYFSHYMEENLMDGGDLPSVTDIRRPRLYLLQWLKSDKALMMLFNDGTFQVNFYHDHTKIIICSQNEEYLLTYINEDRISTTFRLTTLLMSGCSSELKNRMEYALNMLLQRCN", "conditions": "kinase PLK2; ZLYTE"}, "various kinases [2]": {"target": "various kinases (Homo sapiens, UniProt P00533, T790M)", "conditions": "EGFR (ErbB1) T790M"}, "various kinases [3]": {"target": "various kinases (Homo sapiens, UniProt Q12866)", "conditions": "MERTK (cMER)"}, "various kinases [4]": {"target": "various kinases (Homo sapiens, UniProt P07332)", "conditions": "FES (FPS)"}, "various kinases [5]": {"target": "various kinases (Homo sapiens, UniProt Q9P0L2)", "conditions": "MARK1 (MARK)"}, "various kinases [6]": {"target": "various kinases (Homo sapiens, UniProt P45984)", "conditions": "MAPK9 (JNK2)"}, "various kinases [7]": {"target": "various kinases (Homo sapiens, UniProt O43293)", "conditions": "DAPK3 (ZIPK)"}, "various kinases [8]": {"target": "various kinases (Homo sapiens, UniProt P09619)", "conditions": "PDGFRB (PDGFR beta)"}, "various kinases [9]": {"target": "various kinases (Homo sapiens, UniProt P42345)", "conditions": "FRAP1 (mTOR)"}, "various kinases [10]": {"target": "various kinases (Homo sapiens, UniProt Q15349)", "sequence (Q15349 whole entry)": "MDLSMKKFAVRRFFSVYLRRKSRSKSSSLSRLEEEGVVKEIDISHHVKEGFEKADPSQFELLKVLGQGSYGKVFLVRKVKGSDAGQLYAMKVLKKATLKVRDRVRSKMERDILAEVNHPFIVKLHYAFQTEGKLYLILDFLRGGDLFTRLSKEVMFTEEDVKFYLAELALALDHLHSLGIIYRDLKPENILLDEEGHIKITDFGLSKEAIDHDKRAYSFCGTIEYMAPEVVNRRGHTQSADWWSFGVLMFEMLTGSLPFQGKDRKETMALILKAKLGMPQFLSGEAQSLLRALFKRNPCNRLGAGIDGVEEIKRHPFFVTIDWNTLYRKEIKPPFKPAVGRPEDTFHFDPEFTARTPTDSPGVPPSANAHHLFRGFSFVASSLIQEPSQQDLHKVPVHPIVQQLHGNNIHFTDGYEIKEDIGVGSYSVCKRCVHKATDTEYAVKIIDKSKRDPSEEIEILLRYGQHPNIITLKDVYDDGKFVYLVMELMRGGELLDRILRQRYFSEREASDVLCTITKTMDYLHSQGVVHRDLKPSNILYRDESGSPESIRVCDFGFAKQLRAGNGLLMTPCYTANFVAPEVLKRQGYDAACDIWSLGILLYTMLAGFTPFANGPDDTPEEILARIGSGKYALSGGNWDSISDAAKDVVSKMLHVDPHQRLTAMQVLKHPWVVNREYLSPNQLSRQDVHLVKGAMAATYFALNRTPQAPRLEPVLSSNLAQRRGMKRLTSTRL", "conditions": "kinase RPS6KA2 (RSK3); ZLYTE"}, "various kinases [11]": {"target": "T1, various kinases (Homo sapiens, UniProt Q13043)", "T1 sequence (Q13043 1-487)": "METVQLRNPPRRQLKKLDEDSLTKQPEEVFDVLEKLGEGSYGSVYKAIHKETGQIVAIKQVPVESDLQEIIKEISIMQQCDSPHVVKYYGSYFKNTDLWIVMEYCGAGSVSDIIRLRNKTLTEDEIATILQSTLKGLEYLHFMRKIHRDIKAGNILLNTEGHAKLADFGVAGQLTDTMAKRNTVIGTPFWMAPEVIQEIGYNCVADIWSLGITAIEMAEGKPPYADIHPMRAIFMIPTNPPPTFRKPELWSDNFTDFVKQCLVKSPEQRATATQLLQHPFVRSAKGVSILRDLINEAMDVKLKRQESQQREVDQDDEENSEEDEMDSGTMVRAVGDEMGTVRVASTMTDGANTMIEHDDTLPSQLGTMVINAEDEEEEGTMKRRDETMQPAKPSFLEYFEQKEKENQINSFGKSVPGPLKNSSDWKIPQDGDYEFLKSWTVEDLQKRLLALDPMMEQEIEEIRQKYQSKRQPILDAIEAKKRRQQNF", "conditions": "kinase STK4 (MST1); ZLYTE"}, "various kinases [12]": {"target": "various kinases (Homo sapiens, UniProt P16234)", "conditions": "PDGFRA (PDGFR alpha)"}, "various kinases [13]": {"target": "various kinases (Homo sapiens, UniProt P00533, L858R/T790M)", "conditions": "EGFR (ErbB1) T790M L858R"}, "various kinases [14]": {"target": "various kinases (Homo sapiens, UniProt P53350)", "sequence (P53350 whole entry)": "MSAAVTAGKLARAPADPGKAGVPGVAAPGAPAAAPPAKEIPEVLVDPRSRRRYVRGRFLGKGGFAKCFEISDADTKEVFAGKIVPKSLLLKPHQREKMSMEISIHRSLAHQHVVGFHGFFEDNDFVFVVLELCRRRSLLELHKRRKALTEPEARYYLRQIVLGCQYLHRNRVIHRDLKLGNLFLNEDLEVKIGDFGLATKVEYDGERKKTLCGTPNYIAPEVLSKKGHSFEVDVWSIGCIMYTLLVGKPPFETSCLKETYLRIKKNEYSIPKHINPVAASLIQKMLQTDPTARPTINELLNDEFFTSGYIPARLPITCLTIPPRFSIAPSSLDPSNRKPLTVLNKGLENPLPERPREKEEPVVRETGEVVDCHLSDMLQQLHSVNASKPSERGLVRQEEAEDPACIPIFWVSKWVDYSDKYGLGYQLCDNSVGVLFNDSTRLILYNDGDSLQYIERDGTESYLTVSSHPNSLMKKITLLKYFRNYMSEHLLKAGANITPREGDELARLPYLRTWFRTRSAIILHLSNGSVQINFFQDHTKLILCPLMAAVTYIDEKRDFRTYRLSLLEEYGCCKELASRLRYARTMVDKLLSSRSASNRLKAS", "conditions": "kinase PLK1; ZLYTE"}, "various kinases [15]": {"target": "various kinases (Homo sapiens, UniProt P29317)", "conditions": "EPHA2"}, "various kinases [16]": {"target": "various kinases (Homo sapiens, UniProt P10721)", "conditions": "KIT"}, "various kinases [17]": {"target": "various kinases (Homo sapiens, UniProt P16234, T674I)", "conditions": "PDGFRA T674I"}, "various kinases [18]": {"target": "various kinases (Homo sapiens, UniProt P27448)", "conditions": "MARK3"}, "various kinases [19]": {"target": "various kinases (Homo sapiens, UniProt Q8N568)", "conditions": "DCAMKL2 (DCK2)"}, "various kinases [20]": {"target": "various kinases (Homo sapiens, UniProt P05771)", "sequence (P05771 whole entry)": "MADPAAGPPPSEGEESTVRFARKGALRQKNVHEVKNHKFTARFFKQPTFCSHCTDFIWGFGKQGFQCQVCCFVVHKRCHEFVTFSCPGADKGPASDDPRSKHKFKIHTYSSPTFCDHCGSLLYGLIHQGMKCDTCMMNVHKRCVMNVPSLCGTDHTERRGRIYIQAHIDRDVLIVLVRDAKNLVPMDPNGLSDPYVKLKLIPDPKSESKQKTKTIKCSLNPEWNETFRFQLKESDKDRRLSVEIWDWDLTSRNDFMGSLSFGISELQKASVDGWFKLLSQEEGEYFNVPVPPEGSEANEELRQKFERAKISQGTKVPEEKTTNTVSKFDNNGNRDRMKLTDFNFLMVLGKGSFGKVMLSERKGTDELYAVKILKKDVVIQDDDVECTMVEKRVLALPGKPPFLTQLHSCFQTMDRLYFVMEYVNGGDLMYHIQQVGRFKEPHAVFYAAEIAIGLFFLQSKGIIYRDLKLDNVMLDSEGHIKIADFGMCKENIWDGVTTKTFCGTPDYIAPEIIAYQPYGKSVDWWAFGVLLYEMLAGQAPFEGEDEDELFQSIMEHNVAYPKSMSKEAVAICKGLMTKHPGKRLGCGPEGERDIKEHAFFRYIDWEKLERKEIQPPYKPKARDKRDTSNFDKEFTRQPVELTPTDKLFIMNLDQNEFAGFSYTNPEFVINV", "conditions": "kinase PRKCB1 (PKC beta I); ZLYTE"}, "various kinases [21]": {"target": "various kinases (Homo sapiens, UniProt O15530)", "sequence (O15530 whole entry)": "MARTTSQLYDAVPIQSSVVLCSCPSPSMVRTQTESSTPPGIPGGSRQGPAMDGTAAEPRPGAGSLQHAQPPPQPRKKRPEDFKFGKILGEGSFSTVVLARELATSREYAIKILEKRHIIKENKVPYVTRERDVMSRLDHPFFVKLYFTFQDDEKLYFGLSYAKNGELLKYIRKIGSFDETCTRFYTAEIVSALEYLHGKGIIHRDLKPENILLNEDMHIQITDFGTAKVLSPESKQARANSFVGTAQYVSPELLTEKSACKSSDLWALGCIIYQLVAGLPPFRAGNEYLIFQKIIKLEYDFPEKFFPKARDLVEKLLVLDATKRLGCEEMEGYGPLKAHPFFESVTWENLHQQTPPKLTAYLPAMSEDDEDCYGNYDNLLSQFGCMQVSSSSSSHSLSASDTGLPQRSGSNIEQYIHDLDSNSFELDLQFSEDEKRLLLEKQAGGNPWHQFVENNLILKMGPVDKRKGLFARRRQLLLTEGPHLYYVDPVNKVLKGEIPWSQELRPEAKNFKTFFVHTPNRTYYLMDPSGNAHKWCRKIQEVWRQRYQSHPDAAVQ"}, "various kinases [22]": {"target": "various kinases (Homo sapiens, UniProt Q9P1W9)", "conditions": "PIM2"}, "various kinases [23]": {"target": "various kinases (Homo sapiens, UniProt P16234, V561D)", "conditions": "PDGFRA V561D"}, "various kinases [24]": {"target": "various kinases (Homo sapiens, UniProt Q02750)", "conditions": "MAP2K1 (MEK1)"}, "various kinases [25]": {"target": "various kinases (Homo sapiens, UniProt P49760)", "sequence (P49760 whole entry)": "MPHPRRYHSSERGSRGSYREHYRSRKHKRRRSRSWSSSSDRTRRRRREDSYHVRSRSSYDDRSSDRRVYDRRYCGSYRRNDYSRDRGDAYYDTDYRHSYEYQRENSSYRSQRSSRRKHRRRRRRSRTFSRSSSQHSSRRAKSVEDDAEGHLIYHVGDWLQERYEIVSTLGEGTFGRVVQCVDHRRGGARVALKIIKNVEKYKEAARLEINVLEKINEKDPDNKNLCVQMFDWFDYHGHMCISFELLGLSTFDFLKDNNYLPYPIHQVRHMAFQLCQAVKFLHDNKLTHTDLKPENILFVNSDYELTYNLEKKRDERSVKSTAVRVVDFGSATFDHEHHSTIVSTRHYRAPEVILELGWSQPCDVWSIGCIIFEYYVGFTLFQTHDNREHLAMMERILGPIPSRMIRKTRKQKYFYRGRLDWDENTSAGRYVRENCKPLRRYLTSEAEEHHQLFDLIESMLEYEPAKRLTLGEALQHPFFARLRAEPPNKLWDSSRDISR", "conditions": "CLK2"}, "various kinases [26]": {"target": "various kinases (Homo sapiens, UniProt P24941)", "conditions": "CDK2/cyclin A"}, "various kinases [27]": {"target": "various kinases (Homo sapiens, UniProt P08581, M1250T)", "conditions": "MET M1250T"}, "various kinases [28]": {"target": "various kinases (Homo sapiens, UniProt O96017)", "conditions": "CHEK2 (CHK2)"}, "various kinases [29]": {"target": "various kinases (Homo sapiens, UniProt P07949, Y791F)", "conditions": "kinase RET Y791F; ZLYTE"}, "various kinases [30]": {"target": "various kinases (Homo sapiens, UniProt Q05397)", "sequence (Q05397 whole entry)": "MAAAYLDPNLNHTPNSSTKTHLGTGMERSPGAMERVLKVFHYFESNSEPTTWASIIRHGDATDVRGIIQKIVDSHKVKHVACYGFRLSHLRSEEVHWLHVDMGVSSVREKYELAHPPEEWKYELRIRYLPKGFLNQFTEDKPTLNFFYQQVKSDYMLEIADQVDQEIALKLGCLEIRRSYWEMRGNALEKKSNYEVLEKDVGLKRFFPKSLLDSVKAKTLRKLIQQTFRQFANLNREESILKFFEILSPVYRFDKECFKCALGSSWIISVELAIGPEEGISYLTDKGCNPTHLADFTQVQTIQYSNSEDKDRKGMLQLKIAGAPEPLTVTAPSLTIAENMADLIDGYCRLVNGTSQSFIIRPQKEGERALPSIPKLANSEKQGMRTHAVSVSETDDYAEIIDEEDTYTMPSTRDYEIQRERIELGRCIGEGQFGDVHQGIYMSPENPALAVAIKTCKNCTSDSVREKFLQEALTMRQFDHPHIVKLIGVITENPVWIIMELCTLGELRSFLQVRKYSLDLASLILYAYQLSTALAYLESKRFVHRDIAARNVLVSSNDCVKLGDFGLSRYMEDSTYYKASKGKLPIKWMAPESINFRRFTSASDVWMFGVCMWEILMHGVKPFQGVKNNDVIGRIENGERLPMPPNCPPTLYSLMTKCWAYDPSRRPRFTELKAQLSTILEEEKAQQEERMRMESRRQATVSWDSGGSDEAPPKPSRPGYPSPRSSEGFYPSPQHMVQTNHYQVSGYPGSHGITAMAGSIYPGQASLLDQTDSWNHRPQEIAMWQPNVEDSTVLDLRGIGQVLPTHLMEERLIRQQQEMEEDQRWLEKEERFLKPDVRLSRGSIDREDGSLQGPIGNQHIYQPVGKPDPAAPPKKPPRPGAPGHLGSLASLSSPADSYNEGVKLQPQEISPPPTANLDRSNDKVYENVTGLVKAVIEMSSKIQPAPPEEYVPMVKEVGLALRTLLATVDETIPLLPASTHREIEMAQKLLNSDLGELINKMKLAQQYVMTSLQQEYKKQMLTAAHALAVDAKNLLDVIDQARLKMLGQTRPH", "conditions": "kinase PTK2 (FAK); ZLYTE"}}, "note": "Where “and” joins values, the source holds several entries; their conditions need not be identical. Equal values may be shown once. For % Inhibition Average in this document: test concentration or dose not given here. For % Inhibition Duplicate #1 in this document: test concentration or dose not given here. For % Inhibition Duplicate #2 in this document: test concentration or dose not given here."}
{"smiles": "COc1ccc2c(c1)[C@]1(C[C@H]1c1ccc3c(/C=C/c4ccc(CN5C[C@@H](C)O[C@@H](C)C5)cc4)n[nH]c3c1)C(=O)N2", "note": "[CFI-400945]", "values": [{"measurement": "% Inhibition Average", "setting": "various kinases [1]", "result": 4, "unit": "%"}, {"measurement": "% Inhibition Duplicate #1", "setting": "various kinases [1]", "result": 4, "unit": "%"}, {"measurement": "% Inhibition Duplicate #2", "setting": "various kinases [1]", "result": 4, "unit": "%"}, {"measurement": "% Inhibition", "setting": "various kinases [2]", "result": 3, "unit": "%"}, {"measurement": "% Inhibition", "setting": "various kinases [3]", "result": "-2% and 1%"}, {"measurement": "% Inhibition", "setting": "various kinases [4]", "result": "13% and 10%"}, {"measurement": "% Inhibition", "setting": "various kinases [5]", "result": "25% and 24%"}, {"measurement": "% Inhibition", "setting": "various kinases [6]", "result": "9% and -1%"}, {"measurement": "% Inhibition", "setting": "various kinases [7]", "result": "1% and 2%"}, {"measurement": "% Inhibition", "setting": "various kinases [8]", "result": "3% and 4%"}, {"measurement": "% Inhibition", "setting": "various kinases [9]", "result": "2% and 5%"}, {"measurement": "% Inhibition Average", "setting": "various kinases [10]", "result": 12, "unit": "%"}, {"measurement": "% Inhibition Duplicate #1", "setting": "various kinases [10]", "result": 11, "unit": "%"}, {"measurement": "% Inhibition Duplicate #2", "setting": "various kinases [10]", "result": 13, "unit": "%"}, {"measurement": "% Inhibition Average", "setting": "various kinases [11]", "result": 23, "unit": "%"}, {"measurement": "% Inhibition Duplicate #1", "setting": "various kinases [11]", "result": 22, "unit": "%"}, {"measurement": "% Inhibition Duplicate #2", "setting": "various kinases [11]", "result": 24, "unit": "%"}, {"measurement": "% Inhibition", "setting": "various kinases [12]", "result": "3% and 2%"}, {"measurement": "% Inhibition", "setting": "various kinases [13]", "result": "5% and 4%"}, {"measurement": "% Inhibition Average", "setting": "various kinases [14]", "result": 5, "unit": "%"}, {"measurement": "% Inhibition Duplicate #1", "setting": "various kinases [14]", "result": 6, "unit": "%"}, {"measurement": "% Inhibition Duplicate #2", "setting": "various kinases [14]", "result": 5, "unit": "%"}, {"measurement": "% Inhibition", "setting": "various kinases [15]", "result": "14% and 12%"}, {"measurement": "% Inhibition", "setting": "various kinases [16]", "result": "9% and 7%"}, {"measurement": "% Inhibition", "setting": "various kinases [17]", "result": "1% and 2%"}, {"measurement": "% Inhibition", "setting": "various kinases [18]", "result": "9% and 19%"}, {"measurement": "% Inhibition", "setting": "various kinases [19]", "result": "-7% and -1%"}, {"measurement": "% Inhibition Average", "setting": "various kinases [20]", "result": 17, "unit": "%"}, {"measurement": "% Inhibition Duplicate #1", "setting": "various kinases [20]", "result": 18, "unit": "%"}, {"measurement": "% Inhibition Duplicate #2", "setting": "various kinases [20]", "result": 16, "unit": "%"}, {"measurement": "% Inhibition", "setting": "various kinases [21]; PDK1", "result": "3% and 2%"}, {"measurement": "% Inhibition", "setting": "various kinases [21]; PDK1 Direct", "result": 6, "unit": "%"}, {"measurement": "% Inhibition", "setting": "various kinases [22]", "result": "8% and 9%"}, {"measurement": "% Inhibition", "setting": "various kinases [23]", "result": "5% and 4%"}, {"measurement": "% Inhibition", "setting": "various kinases [24]", "result": 9, "unit": "%"}, {"measurement": "% Inhibition", "setting": "various kinases [25]", "result": "0% and 7%"}, {"measurement": "% Inhibition", "setting": "various kinases [26]", "result": "7% and 2%"}, {"measurement": "% Inhibition", "setting": "various kinases [27]", "result": 11, "unit": "%"}, {"measurement": "% Inhibition", "setting": "various kinases [28]", "result": "3% and 2%"}, {"measurement": "% Inhibition Average", "setting": "various kinases [29]", "result": 14, "unit": "%"}, {"measurement": "% Inhibition Duplicate #1", "setting": "various kinases [29]", "result": 13, "unit": "%"}, {"measurement": "% Inhibition Duplicate #2", "setting": "various kinases [29]", "result": 14, "unit": "%"}, {"measurement": "% Inhibition Average", "setting": "various kinases [30]", "result": 4, "unit": "%"}, {"measurement": "% Inhibition Duplicate #1", "setting": "various kinases [30]", "result": 5, "unit": "%"}, {"measurement": "% Inhibition Duplicate #2", "setting": "various kinases [30]", "result": 3, "unit": "%"}]}
